According to patent US10596296B2, “Heparan sulphates” (Agency for Science, Technology and Research, priority 2014, dated 2020):

Tests used:
[1] = target: T1, TGF-β1 (Homo sapiens, UniProt P01137); experiment: Differential scanning fluorimetry (DSF) of TGF-β1; type: binding; settings: TGF-β1 2.5 μM, DTT 10 mM, heparin 25 μM
T1 construct: full length mature TGF-β1 is 112 amino acids in length
Procedure: DSF was performed on a 7500 Fast Real PCR System (software version 1.4, Applied Biosystems), as described previously (34,35). TGF-β1 (2.5 μM) was tested with or without heparin (25 μM). To facilitate the melting of TGF-β1, 10 mM of dithiothreitol (DTT) was added to the reaction mix. Experiments were run as previously described (34). First derivatives of the melting curves were calculated using Origin 7 (OriginLab Corp.) to determine the melting temperature of TGF-β1 under the various conditions.

[2] = system: chondrogenic differentiation of hMSCs; experiment: qPCR of day 3 chondrogenic micromass pellets (Example 1); type: cell-based, human; settings: day 3; 10 ng/ml TGF-β1 with 10 μg/ml heparin
Procedure: Chondrogenic differentiation was carried out using a modified micromass culture system as described by Zhang et al. (32). Briefly, passage 4 hMSCs were harvested and resuspended in chemically defined chondrogenic media (PT-3003, Lonza) at 2×10^7 cells/ml. Droplets of 12.5 μl were then seeded into the middle of each well in a 24-well plate and left to adhere at 37° C. for 2 h, after which, 500 μl of chondrogenic media supplemented with either 10 ng/ml of TGF-β1 (100-21C, PeproTech) alone (Media) or TGF-β1 with 10 μg/ml of heparin (Sigma-Aldrich) (Media+Hep) was added to each well. The cell droplets coalesced into spherical masses after 24 h and the micromasses harvested on day 3. Human MSCs were cultured in 6-well plates in basal media for 24 h at a density of 10,000 cells/cm^2. TGF-β1 treatments were then prepared at either 1 ng/ml or 5 ng/ml alone or in the presence of either 10 μg/ml or 40 μg/ml of full length heparin, or 1 ng/ml of TGF-β1 with 10 μg/ml size-fractionated or selectively desulfated heparin, HS^PM, HS16+ or HS16−, and incubated at room temperature for 10 min before being added to the cells. Latent TGF-β1 (LTGF-β1) treatments were similarly prepared at 3.3 ng/ml alone or with 10 μg/ml of the various GAGs described above. For inhibitor studies, the cells were pre-treated for 30 min with 10 μM SB431542 (Sigma-Aldrich) or DMSO before treatment with TGF-β1. The cells were then subjected to the various TGF-β1 treatments for 1, 6 or 24 h and lysed in 2× Laemmli buffer, before being resolved on a 4-12% SDS-PAGE gel. Samples were then immunoblotted with antibodies against SMAD2/3 (#3102, Cell Signaling), phosphorylated SMAD2 (pSMAD2, #3108, Cell Signaling), phosphorylated SMAD3 (pSMAD3, #9520, Cell Signaling) and actin (MAB1501R, Millipore). Densitometry was carried out using Quantity One software (version 4.6.6, Bio-Rad). Total RNA was isolated from chondrogenic micromass pellets using TRIZOL reagent (Invitrogen, Life Technologies) according to the manufacturer's protocol. Reverse transcription was carried out on 1 μg RNA using the SuperScript® VILO™ cDNA Synthesis Kit (Invitrogen, Life Technologies) following the manufacturer's instructions, with the incubation at 42° C. being carried out for 2 h instead of 1 h. Each qPCR contained 40 ng cDNA, 1 μl TaqMan® primer-probe mix per gene, and 10 μl Taqman® Fast Universal PCR Master Mix (Applied Biosystems, Life Technologies) in a final volume of 20 μl. Thermal cycling conditions were 95° C. for 20 s, followed by 45 cycles of 95° C. for 3 s and 60° C. for 30 s. Each qPCR was run in duplicate and gene expression was normalized to HPRT1 expression to obtain the ΔCt value. […] Relative expression levels for each primer set were expressed as fold changes by the 2^−ΔΔCt method (36). […]

T1 sequence (P01137 279-390 limits assumed): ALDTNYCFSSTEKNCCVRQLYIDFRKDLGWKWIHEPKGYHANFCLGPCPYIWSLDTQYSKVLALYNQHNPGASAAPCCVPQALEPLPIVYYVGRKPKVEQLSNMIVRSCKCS

**Q.** Which “melting temperature of TGF-β1 upon addition of heparin” value [1] does the source give for heparin here?
**A.** 47.5 °C

**Q.** And the “COMP mRNA transcripts relative to Media (TGF-β1 alone)” value [2]?
**A.** ~5 fold

**Q.** And the “SOX9 mRNA transcripts relative to Media (TGF-β1 alone)” value [2]?
**A.** ~5 fold
